Test results taken from patent US5198552A, “Indole derivative having antiviral, interferon-inducing and immunomodulatory effects” (priority 1991, dated 1993).
Structures can show the parent of a compound that is named as a salt. Where two headings read alike, the source gives them in different places.

Assays:
[1] = test system: stem cells; test: Inactivation of stem cells with allogenic lymphocytes (graft versus host, spleen endocolonies); type: in vivo, mice
[2] = test system: peritoneal macrophages; test: Absorbing capacity of mouse peritoneal macrophages (neutral red); type: in vivo, mice
[3] = test system: antibody-producing cells; test: Antibody-producing cells in the spleen of mice immunized with sheep erythrocytes; type: in vivo
[4] = cited from earlier work
[5] = test system: interferon; conditions: mouse blood serum; cited from earlier work
[6] = test system: interferon; conditions: cell culture; cited from earlier work
[7] = test system: interferon; conditions: human blood serum; cited from earlier work
[8] = Maximum tolerable concentration for chick embryo fibroblasts; type: cell-based; conditions: chicken
[9] = test system: influenza A virus; test: Activity against influenza A virus; type: cell-based
[10] = in vivo; conditions: mouse, po
[11] = test system: influenza A/B viruses; type: cell-based
[12] = test system: influenza A/B viruses; test: Medicinal effect on experimental influenzal pneumonia of mice induced by influenza A/B viruses; type: in vivo
[13] = test system: influenza B virus; test: Activity against influenza B virus; type: cell-based; conditions: hydrochloride
Protocol: The antiviral effect of the preparation against influenza A/B viruses was tested on a hen embryo fabroblast cell culture.

[14] = test system: influenza viruses; test: Virucidal action on influenza viruses
[15] = in vivo; cited from earlier work
[16] = 1 day after single administration
[17] = 2 day after single administration
[18] = 3 day after single administration

With `c1ccc([C@H]2CN3CCSC3=N2)cc1` [Levamisole, (-) 2,3,5,6,-tetrahydro-6-phenylimidazo-/2.1.b/-thiazole hydrochloride, reference compound] the “The counts of spleen endocolonies (M ± m)” value (shortened to “The counts”) ([1]; 1.25 × 10^6 lymphocytes) was 2.3 ± 0.5, the “The counts” value ([1]; 2.5 × 10^6 lymphocytes) was 1.1 ± 0.2 and the “The counts” value ([1]; 5.0 × 10^6 lymphocytes) was 0.7 ± 0.2. For the same compound, the “The counts” value ([1]; no lymphocytes given, hydrochloride) was 1.1 ± 0.3, the “The counts” value ([1]; no lymphocytes given, listed as levamisole, hydrochloride) was “somewhat decreases the yield of the spleen colonies” and the “effect on yield of spleen colonies under graft versus host conditions” value ([1]; preparation 100 mg per 1 kg orally, levamisole 5 mg per 1 kg) was “identical but a less pronounced effect”. The “Absorbing Capacity of Peritoneal Macrophages” value [2, 16] was 24.2 ± 4.5 mg/6 × 10^6 cells, the “Absorbing Capacity, percent of control” value [2, 16] was 116 ± 21% and the “Absorbing Capacity of Peritoneal Macrophages” value [2, 17] was 27.7 ± 3.2 mg/6 × 10^6 cells. For the same compound, the “Absorbing Capacity, percent of control” value [2, 17] was 121 ± 14%, the “Absorbing Capacity of Peritoneal Macrophages” value [2, 18] was 32.5 ± 2.4 mg/6 × 10^6 cells and the “Absorbing Capacity, percent of control” value [2, 18] was 135 ± 9.9%. The “absorbing capacity of macrophages” value ([2]; by 2-3 days after a single administration, p<0.05) was 138±11%, the “effect on counts of macrophages washed off the peritoneal cavity” value ([2]; mouse, in vivo) was “no effect on counts of macrophages” and the “immunopotentiating effect on tumor-carrier animals” value ([3]; 7-17 day of tumor development, single (3 days prior to immunization) or 5-times daily) was “inefficient”. For the same compound, the “Antibody-producing cells in spleen (% of control)” value ([3]; intact mice, 5 times at a 5-day interval) was 170 ± 15.1%, the “Antibody-producing cells in spleen (% of control)” value ([3]; intact mice, during 3 days, daily) was 164 ± 6.1% and the “immunostimulating effect on irradiated animals” value ([3]; irradiated animals) was “of low efficacy”. The “Antibody-producing cells in spleen (% of control)” value ([3]; totally irradiated (2 Gr.), 5 times at a 5-day interval) was 104 ± 6.0%, the “Antibody-producing cells in spleen (% of control)” value ([3]; totally irradiated (2 Gr.), during 3 days, daily) was 174 ± 24.0% and the “immunopotentiating effect on totally irradiated tumor-carrier animals” value ([3]; totally irradiated tumor-carriers) was “also had the immunopotentiating effect”. For the same compound, the “Antibody-producing cells in spleen (% of control)” value ([3]; totally irradiated tumor-carriers (2 Gr.), 5 times at a 5-day interval) was 402 ± 12.5%, the “Antibody-producing cells in spleen (% of control)” value ([3]; totally irradiated tumor-carriers (2 Gr.), during 3 days, daily) was 86.0 ± 35.0% and the “Antibody-producing cells in spleen (% of control)” value ([3]; tumor-carriers, 5 times at a 5-day interval) was 91 ± 14.0%. The “Antibody-producing cells in spleen (% of control)” value ([3]; tumor-carriers, during 3 days, daily) was 14 ± 23.0%, the side-effects ([4]; in vivo) was “a headache, sleep disturbances, olfactory hallicinations (odour changes), allergic skin hypersensitivity, influenza-like and neurologic symptoms” and the toxicity ([4]; in vivo) was “highly toxic”. For the same compound, the “agranulocytosis: decrease of neutrophile to a value” ([4]; treatment as an immunomodulator) was “below 25%”, the interferon titers [5] was 160-320 U/ml and the interferon titers [6] was 80-160 U/ml. The interferon titers [7] was 40-80 U/ml.
With `CC(N)C12CC3CC(CC(C3)C1)C2` (stereo not shown) [Remantadine, alfa-methyl-1-adamantanemethylamine hydrochloride] the MNTC [8] was 20 µg/mL, the “efficacy against influenza A virus” value [9] was “efficient only against influenza A virus” and the LD50 [10] was 340 mg/kg. For the same compound, the “inhibition of influenza A/B virus reproduction / chemotherapeutical effect” value [11] was “Inhibits the reproduc-”, the “medicinal (chemotherapeutical) effect on influenzal pneumonia” value [12] was “Exert a medicinal effect” and the “efficacy against influenza B virus” value [13] was “It is inefficient against”. For the same compound, the “efficacy against influenza B virus” value ([13]; listed as remantadine) was “inefficient against influenza B virus”, the “virucidal action on influenza viruses” value [14] was “No virucidal action” and the side-effect [15] was “side-effect on a central nervous system”.
